From publication PMC9147390, “Evaluation of TILI-2 as an Anti-Tyrosinase, Anti-Oxidative Agent and Its Role in Preventing Melanogenesis Using a Proteomics Approach” (Molecules, 2022)
No end group written: not given here.

Columns and labels:
[1] = tested on: mouse B16 melanomas; conditions: cited from earlier work
From the text: Bioactive peptides are a promising group of depigmenting agents because they are derived from natural sources and therefore display low cytotoxicity.

[2] = DPPH radical scavenging assay; conditions: 0 to 200 µM, 30 min, room temperature, dark
Protocol: The DPPH radical scavenging assay was performed with slight modifications of the protocol reported by Jandaruang et al.. Briefly, a DPPH radical solution (0.1 mM, 100 µL) was mixed with TILI-2 (final concentration 0–200 µM, 10 µL) and incubated at room temperature in the dark for 30 min. Then, the reaction was monitored by measuring the absorbance of 515 nm using a SpectraMax M5 plate reader (Molecular Devices, Sunnyvale, CA, USA). DPPH radical inhibition (%) was calculated using the equation below: DPPH radical inhibition %=1−A515 sample/A515 control×100 where A515 sample and A515 control are the absorbance at 515 nm of the reaction with and without peptide.
(§1) The data were represented as mean ± SD (n = 3). An ANOVA test according to Duncan (p < 0.05) was used for each comparison (IBM SPSS Statistics 20).

[3] = ABTS radical scavenging assay; conditions: 0 to 50 µM, 6 min, room temperature
Protocol: The ABTS radical scavenging assay was performed with slight modifications of the protocol reported by Re et al.. Briefly, ABTS^+ was generated by the incubation of 7 mM ABTS with 2.45 mM potassium persulfate for 16 h at room temperature. Next, the ABTS radical solution was diluted until the absorbance at 734 nm was 0.7. The diluted ABTS radical solution (100 µL) was mixed with TILI-2 (final concentration 0–200 µM, 10 µL) and incubated at room temperature for 6 min. After that, the absorbance at 734 nm was measured using a SpectraMax M5 plate reader (Molecular Devices, Sunnyvale, CA, USA). The percentage of ABTS radical inhibition was calculated using the equation below: ABTS radical inhibition %=1−A734 sample/A734 control×100 where A734 sample and A734 control are the absorbance at 734 nm of the reaction with and without peptide.
as §1

[4] = tested on: NHDF cells; test: Cell viability assay (MTT), fibroblasts; type: cell-based, human; conditions: 24 h
Protocol: (§2) Fibroblast cells (NHDF) and B16F1 cells were purchased from the American Type Culture Collection (ATCC, Manassas, VA, USA) and cells were cultured in DMEM supplemented with 10% heat-inactivated FBS, 1% penicillin-streptomycin solution, and 5% L-glutamine. RAW 264.7 cells were purchased from the American Type Culture Collection (ATCC, Manassas, VA, USA) and cells were cultured in RPMI supplemented with 10% heat-inactivated FBS and 1% penicillin-streptomycin solution. These cells were cultured at 37 °C in a 5% CO2 and 90% relative humidity incubator. Cell viability assay was performed using slight modifications of the protocol described by Phosri et al.. Briefly, fibroblast cells (NHDF) (8000 cells/well) and RAW 264.7 cells (25,000 cells/well) were seeded onto a 96-well plate and allowed to recover overnight. Then, the cells were incubated with different concentrations of peptides (final concentration of 0–1400 µM, 100 µL). After 24 h incubation, the culture medium was removed, and MTT was added (0.5% w/v, 100 µL). After incubation for a further 30 min at 37 °C, DMSO was added and the absorbance at 570 nm was measured. The cell viability was calculated using the equation below: Cell viability %=A570 sample/A570 control×100 where A570 sample and A570 control are the absorbance of cells with and without the peptide treatment. The data were represented as mean ± SD (n = 3). […]

[5] = tested on: human keratinocyte (HaCaT); conditions: new results consistent with previous reports; cited from earlier work
[6] = tested on: mouse melanoma (B16F1) cells; conditions: B16F1, 350 µM; cited from earlier work
[7] = tested on: RAW 264.7 cells; test: Cell viability assay (MTT), macrophages; type: cell-based; conditions: 24 h
Protocol: as §2

[8] = target: T1, mushroom tyrosinase (mushroom, UniProt C7FF04 1-392); test: enzyme inhibition kinetics (Lineweaver-Burk plot and secondary plot); monophenolase activity of mushroom tyrosinase, L-tyrosine 0.10-0.80 mM, TILI-2 0-300 µM, 50 mM phosphate buffer pH 6.8, 25 °C, absorbance at 475 nm; Ki from slope versus TILI-2 concentration; conditions: both partners purified
T1 construct: mushroom tyrosinase, EC 1.14.18.1, commercial preparation; The commercial preparation may hold several tyrosinase isoforms and other proteins; also called monophenol monooxygenase, EC 1.14.18.1; source: bought: Sigma Aldrich
T1 sequence (C7FF04 1-392): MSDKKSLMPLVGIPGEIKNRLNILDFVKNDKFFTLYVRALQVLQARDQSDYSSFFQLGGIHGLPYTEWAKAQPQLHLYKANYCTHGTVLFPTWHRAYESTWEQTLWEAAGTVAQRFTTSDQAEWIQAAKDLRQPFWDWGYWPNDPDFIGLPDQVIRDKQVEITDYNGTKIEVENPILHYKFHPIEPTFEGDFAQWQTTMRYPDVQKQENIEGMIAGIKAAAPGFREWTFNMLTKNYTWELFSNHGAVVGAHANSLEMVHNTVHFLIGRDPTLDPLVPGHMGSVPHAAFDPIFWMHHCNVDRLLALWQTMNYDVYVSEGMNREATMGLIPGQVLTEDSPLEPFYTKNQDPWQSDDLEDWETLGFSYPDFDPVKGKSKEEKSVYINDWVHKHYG

[9] = target: T1, mushroom tyrosinase; test: cell-based or functional assay

LQPSHY [CT-2, CT-2 (LQPSHY), a C-terminus tyrosine peptide derived from rice bran]
melanogenesis (in words) [1]: repressed melanogenesis

O=C1O[C@H]([C@@H](O)CO)C(O)=C1O [Ascorbic acid, L-Ascorbic acid]
DPPH radical scavenging (range over concentrations) ([2]; 515 nm): 13.79–82.63% | IC50 ([2]; absorbance 515 nm, mean ± SD, n = 3): 40.09 ± 0.21 µM | ABTS radical scavenging (range over concentrations) ([3]; 734 nm): 11.64–82.68% | IC50 ([3]; absorbance 734 nm, mean ± SD, n = 3): 15.9 ± 0.16 µM

CNGVQPK [TILI-2]
Cell viability ([4]; 1400 µM): 99.65 ± 1.31% | cytotoxicity (in words) ([4]; NHDF, 0 to 1400 µM, MTT): not toxic | cytotoxicity (in words) [5]: not toxic | cytotoxicity (in words) [6]: non-toxic | Cell viability ([7]; 1400 µM): 105.41 ± 5.42% | cytotoxicity (in words) ([7]; RAW 264.7, 0 to 1400 µM, MTT): not toxic

B1: Tyrosinase Inhibitor Leucrocin I-2 (TILI-2) (peptide)
peptide: CNGVQPK
notes: N-terminal cysteine-containing heptapeptide, a peptide derivative from Leucrocin I; source: synthetic peptide (GL Biochem Ltd., Fmoc solid-phase synthesis, purity more than 95%)
Ki [8]: 273 µM | IC50 of inhibition of tyrosinase monophenolase activity (L-tyrosine as substrate, A475) [9]: 583 µM
